Measurements taken from US20220175749A1, “LANABECESTAT FOR WEIGHT LOSS” (ASTRAZENECA AB, priority 2019, published 2022).
Marks after values point to notes of the source that are not given here.

What was measured:
Assay type in all cases: in vivo, human
[1] = Combined analysis of the two studies of Examples 1 and 2: weight change from baseline and weight decrease over time; conditions: for mean (SD) kg change from baseline: 52 weeks
Experimental: A further analysis of the subjects in the two studies described in Examples 1 and 2 above was performed, for which results are provided below.
FIGS. 1-3 show weight change from baseline over the course of the 104 week studies. […] At 52 weeks, the mean (SD) kg change from baseline in the Lanabecestat 50 mg group versus placebo was −1.5 kg (4.4) vs +0.1 kg (3.4).
At 52 weeks, the mean (SD) kg change from baseline in the Lanabecestat 50 mg group versus placebo was −0.65 kg (3.4) vs +0.3 kg (3.3).
Table 10 provides data for the weight decrease over time for the population with a baseline BMI>25 kg/m^2 versus the overall population, showing that there is a greater percent decrease in weight in the higher BMI group versus the overall population.

[2] = Phase 2/3 104-week placebo-controlled study of lanabecestat in early Alzheimer's Disease: effect on weight; conditions: for Weight decrease ≥ 7%, (%): placebo 12.7; for mean weight change: completers at week 104, placebo 0.0 kg
Source text: A Phase 2/3, multicenter, randomized, 104-week, double-blind, placebo-controlled, global study of lanabecestat in patients with early Alzheimer's Disease (AD), defined as the continuum of patients with mild cognitive impairment (MCI) due to AD and patients diagnosed with mild AD dementia.
Lanabecestat, i.e., the camsylate salt of (1r,1′R,4R)-4-methoxy-5″-methyl-6′-[5-(prop-1-yn-1-yl)pyridin-3-yl]-3′H-dispiro[cyclohexane-1,2′-indene-1′,2″-imidazol]-4″-amine
was provided orally once daily for 104 weeks at 20 mg or 50 mg and compared to the results for once daily administration of placebo.
The key inclusion criteria for the study were as follows: • Population aged 55 to 85 years old; • Mild AD: meet National Institute on Aging and the Alzheimer's Association (NIA-AA) criteria with a Clinical Dementia Rating Scale-Global Score (CDR-GS) of 0.5 or 1; • MCI: meet NIA-AA criteria with a CDR-GS of 0.5; • CDR memory box score ≥0.5; • Mini-Mental State Examination (MMSE)≥20; • Repeatable Battery for the Assessment of Neuropsychological Status Delayed Memory Index (RBANS DMI)≤85; • Study partner; • Amyloid positive • Cerebrospinal fluid; or • Florbetapir amyloid Positron Emission Tomography (PET); or • Historical amyloid PET.
The key exclusion criteria for the study were as follows: • Unstable medical conditions or medications; • Magnetic Resonance Imaging (MRI): >5 microhemorrhages, significant cerebrovascular pathology, or other pathologies; • QT interval adjusted for heart rate using the Fridericia formula (QTcF) >470 ms; • History of vitiligo and/or current evidence of post-inflammatory hypo-pigmentation or exposure to depigmenting agents.
Comparing completers at week 104, the mean weight change was for 0.0 kg for placebo (n=202), −0.8 kg for lanabecestat 20 mg (n=187), and −1.9 kg for lanabecestat 50 mg (n=178). The overall p-value and pairwise p-value compared to placebo was ≤0.05 (nominal p-value, not adjusted for multiplicity).

[3] = Phase 3 study of lanabecestat in mild AD dementia, 78-week placebo-controlled period: effect on weight; conditions: for Weight decrease ≥ 7%, (%): placebo 6.3; for mean weight change: completers at week 78, placebo −0.2 kg
Experimental: A Phase 3, multicenter, randomized, double-blind, global study of lanabecestat in patients with mild AD dementia that included a 78-week placebo-controlled period, for which results are provided below.
Lanabecestat was provided orally once daily for 78 weeks at 20 mg or 50 mg and compared to the results for once daily administration of placebo.
The key inclusion criteria for the study were as follows: • Population aged 55 to 85 years; • Mild AD: meet National Institute on Aging and the Alzheimer's Association (NIA-AA) criteria with a Clinical Dementia Rating Scale-Global Score (CDR-GS) of 0.5 or 1, with memory box score ≥0.5; • Mini-Mental State Examination (MMSE) score 20-26; • Study partner; • Amyloid positive • Cerebrospinal fluid; or • Florbetapir amyloid Positron Emission Tomography (PET); or • Historical amyloid PET.
The key exclusion criteria for the study were: • Unstable medical conditions or medications; • Magnetic resonance imaging (MRI): >5 microhemorrhages, significant cerebrovascular pathology, or other pathologies; • QT interval adjusted for heart rate using the Fridericia formula (QTcF) >470 ms; • History of vitiligo and/or current evidence of post-inflammatory hypo-pigmentation.
Comparing completers at week 78, the mean weight change was −0.2 kg for placebo (n=24), −1.4 kg for lanabecestat 20 mg (n=27), and −2.9 kg for lanabecestat 50 mg (n=20). The overall p-value and pairwise p-value compared to placebo was ≤0.05 (nominal p-value, not adjusted for multiplicity).

[4] = week 26, all patients, L20 (20 mg), N=1080
[5] = week 26, all patients, L50 (50 mg), N=1047
[6] = week 26, patients with baseline BMI > 25, L20 (20 mg), N=532
[7] = week 26, patients with baseline BMI > 25, L50 (50 mg), N=494
[8] = week 52, all patients, L20 (20 mg), N=726
[9] = week 52, all patients, L50 (50 mg), N=716
[10] = week 52, patients with baseline BMI > 25, L20 (20 mg), N=348
[11] = week 52, patients with baseline BMI > 25, L50 (50 mg), N=348
[12] = week 78, all patients, L20 (20 mg), N=366
[13] = week 78, all patients, L50 (50 mg), N=347
[14] = week 78, patients with baseline BMI > 25, L20 (20 mg), N=170
[15] = week 78, patients with baseline BMI > 25, L50 (50 mg), N=161
[16] = week 104, all patients, L20 (20 mg), N=187
[17] = week 104, all patients, L50 (50 mg), N=178
[18] = week 104, patients with baseline BMI > 25, L20 (20 mg), N=89
[19] = week 104, patients with baseline BMI > 25, L50 (50 mg), N=77

## CC#Cc1cncc(-c2ccc3c(c2)[C@@]2(N=C(C)C(N)=N2)[C@]2(CC[C@H](OC)CC2)C3)c1 [Lanabecestat, (1r,1′R,4R)-4-methoxy-5″-methyl-6′-[5-(prop-1-yn-1-yl)pyridin-3-yl]-3′H-dispiro[cyclohexane-1,2′-indene-1′,2″-imidazol]-4″-amine]
[1]; 50 mg, at 2 years
  weight loss of ≥5% and ≥10% versus placebo: statistically significant weight loss
[1]; baseline BMI>25 kg/m^2, 50 mg, SD 5.2, placebo −0.4 kg (3.6)
  mean (SD) kg change from baseline: -2.5 kg
[1]; baseline BMI≤25 kg/m^2, 50 mg, SD 3.4, placebo +0.3 kg (3.3)
  mean (SD) kg change from baseline: -0.65 kg
[1]; overall population, 50 mg, SD 4.4, placebo +0.1 kg (3.4)
  mean (SD) kg change from baseline: -1.5 kg
[1]; [4]
  Weight loss ≥5%, % of patients: (14%)***
  Weight loss ≥5%, n patients: 147
  Weight loss ≥10%, % of patients: 1%
  Weight loss ≥10%, n patients: 15
  Weight loss ≥15%, % of patients: 0.3%
  Weight loss ≥15%, n patients: 3
[1]; [5]
  Weight loss ≥5%, % of patients: (16%)***
  Weight loss ≥5%, n patients: 172
  Weight loss ≥10%, % of patients: (3%)**
  Weight loss ≥10%, n patients: 28
  Weight loss ≥15%, % of patients: 0.5%
  Weight loss ≥15%, n patients: 5
[1]; [6]
  Weight loss ≥5%, % of patients: (16%)***
  Weight loss ≥5%, n patients: 87
  Weight loss ≥10%, % of patients: 2%
  Weight loss ≥10%, n patients: 11
  Weight loss ≥15%, % of patients: 0.6%
  Weight loss ≥15%, n patients: 3
[1]; [7]
  Weight loss ≥5%, % of patients: (18%)***
  Weight loss ≥5%, n patients: 90
  Weight loss ≥10%, % of patients: 4%
  Weight loss ≥10%, n patients: 20
  Weight loss ≥15%, % of patients: 1%
  Weight loss ≥15%, n patients: 3
[1]; [8]
  Weight loss ≥5%, % of patients: (19%)***
  Weight loss ≥5%, n patients: 139
  Weight loss ≥10%, % of patients: 5%
  Weight loss ≥10%, n patients: 35
  Weight loss ≥15%, % of patients: 1%
  Weight loss ≥15%, n patients: 8
[1]; [9]
  Weight loss ≥5%, % of patients: (25%)***
  Weight loss ≥5%, n patients: 180
  Weight loss ≥10%, % of patients: (5%)**
  Weight loss ≥10%, n patients: 39
  Weight loss ≥15%, % of patients: 1%
  Weight loss ≥15%, n patients: 8
[1]; [10]
  Weight loss ≥5%, % of patients: (24%)***
  Weight loss ≥5%, n patients: 82
  Weight loss ≥10%, % of patients: 7%
  Weight loss ≥10%, n patients: 26
  Weight loss ≥15%, % of patients: 2%
  Weight loss ≥15%, n patients: 8
[1]; [11]
  Weight loss ≥5%, n patients: 104
  Weight loss ≥10%, % of patients: 7%
  Weight loss ≥10%, n patients: 26
  Weight loss ≥15%, % of patients: 2%
  Weight loss ≥15%, n patients: 6
[1]; [12]
  Weight loss ≥5%, % of patients: (23%)**
  Weight loss ≥5%, n patients: 85
  Weight loss ≥10%, % of patients: 7%
  Weight loss ≥10%, n patients: 26
  Weight loss ≥15%, % of patients: 2%
  Weight loss ≥15%, n patients: 9
[1]; [13]
  Weight loss ≥5%, % of patients: (31%)***
  Weight loss ≥5%, n patients: 107
  Weight loss ≥10%, % of patients: (10%)***
  Weight loss ≥10%, n patients: 36
  Weight loss ≥15%, % of patients: 2%
  Weight loss ≥15%, n patients: 7
[1]; [14]
  Weight loss ≥5%, % of patients: (31%)*
  Weight loss ≥5%, n patients: 52
  Weight loss ≥10%, % of patients: 10%
  Weight loss ≥10%, n patients: 17
  Weight loss ≥15%, % of patients: 5%
  Weight loss ≥15%, n patients: 9
[1]; [15]
  Weight loss ≥5%, % of patients: (35%)**
  Weight loss ≥5%, n patients: 57
  Weight loss ≥10%, % of patients: 12%
  Weight loss ≥10%, n patients: 20
  Weight loss ≥15%, % of patients: 3%
  Weight loss ≥15%, n patients: 5
[1]; [16]
  Weight loss ≥5%, % of patients: 26%
  Weight loss ≥5%, n patients: 48
  Weight loss ≥10%, % of patients: 9%
  Weight loss ≥10%, n patients: 16
  Weight loss ≥15%, % of patients: 2%
  Weight loss ≥15%, n patients: 4
[1]; [17]
  Weight loss ≥5%, % of patients: (38%)***
  Weight loss ≥5%, n patients: 67
  Weight loss ≥10%, % of patients: (17%)***
  Weight loss ≥10%, n patients: 31
  Weight loss ≥15%, % of patients: 3%
  Weight loss ≥15%, n patients: 6
[1]; [18]
  Weight loss ≥5%, % of patients: 30%
  Weight loss ≥5%, n patients: 27
  Weight loss ≥10%, % of patients: 15%
  Weight loss ≥10%, n patients: 13
  Weight loss ≥15%, % of patients: 4 (4%)
  Weight loss ≥15%, n patients: 4 (4%)
[1]; [19]
  Weight loss ≥5%, % of patients: (42%)**
  Weight loss ≥5%, n patients: 32
  Weight loss ≥10%, % of patients: 19%
  Weight loss ≥15%, % of patients: 4%
  Weight loss ≥15%, n patients: 3
[2]; 20 mg, N=728
  Weight decrease ≥ 7%, (%): (21.2)* %
[2]; 50 mg, N=723
  Weight decrease ≥ 7%, (%): (24.9)* %
[2]; lanabecestat 20 mg once daily oral, n=187
  mean weight change: -0.8 kg
[2]; lanabecestat 50 mg once daily oral, n=178
  mean weight change: -1.9 kg
[3]; 20 mg, N=570
  Weight decrease ≥ 7%, (%): (9.5) %
[3]; 50 mg, N=545
  Weight decrease ≥ 7%, (%): (14.5)* %
[3]; lanabecestat 20 mg once daily oral, n=27
  mean weight change: -1.4 kg
[3]; lanabecestat 50 mg once daily oral, n=20
  mean weight change: -2.9 kg
